14 compounds from PubChem BioAssay (NCI) can be followed below.

Test systems include HOP-62 NSCLC; MCF7 breast; MOLT-4 leukemia; RPMI-8226 leukemia; SF-268 CNS; SK-MEL-28 melanoma; SK-MEL-5 melanoma; UACC-62 melanoma; OVCAR-3 ovarian; OVCAR-5 ovarian; UO-31 renal.
Assay in all cases: NCI tumour cell line growth inhibition, 48 h

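Protocol summary: plate cells (96-well), add compound at 5 concentrations, incubate 48 h, interpolate endpoints linearly. Abbreviation: GI50, concentration required for 50% inhibition of growth. TGI denotes the concentration required for complete inhibition of growth.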 Some results are limits rather than exact numbers.

Turning to `Cn1c(=O)c2[nH]c(Nc3cccc(Cl)c3)nc2n(C)c1=O`, the TGI in the test on HOP-62 NSCLC, in the test with MCF7 breast, in the test with MOLT-4 leukemia, with RPMI-8226 leukemia, in the test with SF-268 CNS and in the test with SK-MEL-28 melanoma was greater than 10 µM throughout. In addition, the TGI in the test on SK-MEL-5 melanoma and in the test on UACC-62 melanoma was greater than 10 µM each time.
On to `CCC1(c2ccc(OC)c(OC)c2)CCN2C(=O)C(O)CC21` (stereo not drawn), for which the TGI in the test with HOP-62 NSCLC, in the test with MCF7 breast, with MOLT-4 leukemia, in the test with OVCAR-3 ovarian, in the test with OVCAR-5 ovarian and in the test on SF-268 CNS was greater than 100 µM throughout. Further, the TGI in the test with SK-MEL-28 melanoma, with SK-MEL-5 melanoma, with UACC-62 melanoma and with UO-31 renal was greater than 100 µM throughout.
As for `CC(=O)Nc1ccc2c(c1)nc1c3ccccc3ccn21`, the TGI with HOP-62 NSCLC, in the test with MCF7 breast, with MOLT-4 leukemia, in the test on OVCAR-5 ovarian, in the test with SF-268 CNS and with SK-MEL-28 melanoma was greater than 100 µM in each case. Besides, the TGI in the test on SK-MEL-5 melanoma, with UACC-62 melanoma and in the test on UO-31 renal was greater than 100 µM each time.
Consider `CN1C2CCC1C(CO)C(=O)C2` (stereo not drawn), for which the TGI in the test on HOP-62 NSCLC was greater than 100 µM; in the test with MCF7 breast, 56.5 µM; in the test on MOLT-4 leukemia it was 59.5 µM; in the test on OVCAR-3 ovarian, greater than 100 µM; in the test on RPMI-8226 leukemia, 54.1 µM; in the test on SF-268 CNS, greater than 100 µM. In addition, the TGI with SK-MEL-28 melanoma, in the test with SK-MEL-5 melanoma and with UACC-62 melanoma was greater than 100 µM throughout.
With `O=C1CCC(CCc2nc3ccccc3[nH]2)(c2ccccc2)C(=O)N1` (stereo not drawn), the TGI in the test on HOP-62 NSCLC, with MCF7 breast, in the test on OVCAR-3 ovarian, in the test with OVCAR-5 ovarian, in the test on RPMI-8226 leukemia and in the test with SF-268 CNS was greater than 100 µM throughout. Besides, the TGI with SK-MEL-28 melanoma is greater than 100 µM; in the test with SK-MEL-5 melanoma, greater than 100 µM; in the test with UACC-62 melanoma it was greater than 100 µM; in the test on UO-31 renal, 52.1 µM.
For `CCCC/C=C1\CCC(CN2CCCC2)C1=O` (stereo not drawn), the TGI was determined as 33.3 µM in the test on HOP-62 NSCLC; 36.2 µM in the test on MOLT-4 leukemia; 31.5 µM in the test on OVCAR-3 ovarian; 33.4 µM with OVCAR-5 ovarian; 29.9 µM in the test with SF-268 CNS; 29.1 µM in the test on SK-MEL-28 melanoma. For the same compound, the TGI in the test with SK-MEL-5 melanoma came out at 31.1 µM; with UACC-62 melanoma it was 31.2 µM; with UO-31 renal, 32.3 µM.
As to `Oc1ccc(C[C@@H]2CN[C@H](Cc3ccc(O)c(Br)c3)CN2)cc1`, the TGI with HOP-62 NSCLC, in the test with MCF7 breast, in the test on MOLT-4 leukemia, in the test on OVCAR-3 ovarian, in the test on OVCAR-5 ovarian and in the test with SF-268 CNS was greater than 100 µM in each case. The TGI with SK-MEL-28 melanoma, in the test with UACC-62 melanoma and in the test with UO-31 renal was greater than 100 µM in each case.
Consider `CC1OC2OC3C(OCC(O)C3O)OC(=O)[C@]34CCC(C)(C)CC3C3=CCC5[C@@]6(C)C[C@H](O)[C@H](OC7OC(CO)C(O)C(O)C7OC7OC(COC(=O)CC(C)(O)CC(=O)OC1C(OC1OC(CO)C(O)C(O)C1O)C2O)C(O)C(O)C7O)[C@@](C)(CO)C6CC[C@@]5(C)[C@]3(C)CC4` (stereo partly drawn), for which the TGI in the test on HOP-62 NSCLC worked out at 3.13 µM; in the test on MOLT-4 leukemia, 12.7 µM; in the test with OVCAR-3 ovarian, 15.2 µM; in the test with OVCAR-5 ovarian, 5.7 µM; with RPMI-8226 leukemia it was 10.2 µM; with SF-268 CNS, 10.5 µM. The TGI in the test on SK-MEL-28 melanoma is 2.58 µM; in the test on SK-MEL-5 melanoma, 0.272 µM; with UACC-62 melanoma, 3.38 µM; with UO-31 renal it was 5.31 µM.
For `NC(=O)c1ncn(C2OC(CO)C(O)C2O)c1NC(=S)NC(=O)c1ccccc1` (stereo not drawn), the TGI in the test with HOP-62 NSCLC, in the test on MOLT-4 leukemia, with OVCAR-3 ovarian, in the test on OVCAR-5 ovarian, in the test on RPMI-8226 leukemia and in the test with SF-268 CNS was greater than 100 µM in each case. Moreover, the TGI with SK-MEL-28 melanoma, in the test on SK-MEL-5 melanoma, with UACC-62 melanoma and with UO-31 renal was greater than 100 µM in each case.
For `Cc1ccc(S(=O)(=O)N2CCc3cc(O)c([N+](=O)[O-])cc32)cc1`, the TGI in the test on HOP-62 NSCLC, in the test with MCF7 breast, with MOLT-4 leukemia, in the test on SF-268 CNS, in the test with SK-MEL-28 melanoma and in the test on SK-MEL-5 melanoma was greater than 100 µM in each case. The TGI in the test on UACC-62 melanoma and in the test on UO-31 renal was greater than 100 µM throughout.
As to `O=C(/C=C/CC(O)(c1ccccc1)c1ccccc1)Nc1ccccc1Cl`, the TGI with HOP-62 NSCLC, in the test with MOLT-4 leukemia, in the test with OVCAR-3 ovarian, with OVCAR-5 ovarian, in the test on RPMI-8226 leukemia and in the test with SF-268 CNS was greater than 100 µM throughout. Moreover, the TGI in the test on SK-MEL-28 melanoma, with SK-MEL-5 melanoma, in the test on UACC-62 melanoma and in the test on UO-31 renal was greater than 100 µM each time.
Turning to `O=C1CN(c2ccccc2)C(=O)C1C(=O)Nc1ccc(Cl)c(Cl)c1` (stereo not drawn), the TGI with HOP-62 NSCLC amounted to 6.33 µM; in the test on MOLT-4 leukemia, 11.7 µM; with OVCAR-3 ovarian it was 12.6 µM; with OVCAR-5 ovarian, 50.6 µM; in the test on SF-268 CNS, 21.2 µM; in the test on SK-MEL-28 melanoma it was 21.4 µM. The values for the TGI in the test with SK-MEL-5 melanoma, in the test with UACC-62 melanoma and with UO-31 renal were 13.2 µM, 12.4 µM and 11.7 µM, respectively.
Take `CC12CCC(=O)[C@@]1(C)CCCC2=O` (stereo partly drawn): the TGI in the test with HOP-62 NSCLC, in the test with MCF7 breast, in the test on MOLT-4 leukemia, in the test with OVCAR-5 ovarian, in the test on SF-268 CNS and in the test with SK-MEL-28 melanoma was greater than 100 µM in each case. Further, the TGI in the test with UACC-62 melanoma and in the test on UO-31 renal was greater than 100 µM throughout.
For `CCc1ccc(OCc2ccccc2C(=O)Nc2ccc3nc(C)cc(N)c3c2)cc1`, the GI50 was 1.77 µM with HOP-62 NSCLC; 1.62 µM with OVCAR-3 ovarian; 1.62 µM with OVCAR-5 ovarian; 1.75 µM with SK-MEL-28 melanoma; 1.54 µM in the test with SK-MEL-5 melanoma; 1.6 µM in the test with UACC-62 melanoma. Further, the GI50 in the test on UO-31 renal was 1.44 µM. Moreover, the TGI with HOP-62 NSCLC was determined as 3.31 µM; in the test on OVCAR-3 ovarian it was 3.04 µM; in the test on OVCAR-5 ovarian, 3.14 µM; with SK-MEL-28 melanoma, 3.29 µM; in the test with SK-MEL-5 melanoma it was 2.91 µM; with UACC-62 melanoma, 3.02 µM. In addition, in the test with UO-31 renal, the TGI amounted to 2.84 µM.
